Results: US6525001B1, “Substituted pyrimidine and pyridine herbicides” (Mid-American Commercialization Corporation, priority 1997, dated 2003)

Assays:
Assay type in all cases: in vivo
Parameters in all cases: key: 0 is no effect; 10 is complete control
[1] = tested on: bedstraw (Galium aparine); assay: Test B pre-/postemergence
Summary of the method: (§1)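 Scored visually 0 (none) to 10 (complete control) against untreated plants after twelve to sixteen greenhouse days. Test chemicals, formulated in surfactant-containing non-phytotoxic solvent, applied to soil after planting and, separately, onto 1- to 4-leaf (2–18 cm) plants.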

[2] = tested on: broadleaf signalgrass (Brachiaria decumbens); assay: Test B pre-/postemergence
Summary of the method: as §1

[3] = tested on: cocklebur (Xanthium strumarium); assay: Test B pre-/postemergence
Summary of the method: as §1

[4] = tested on: corn (Zea mays); assay: Test B pre-/postemergence
Summary of the method: as §1

[5] = tested on: giant foxtail (Setaria faberii); assay: Test B pre-/postemergence
Summary of the method: as §1

[6] = tested on: momingglory (Ipomoea hederacea); assay: Test B pre-/postemergence
Summary of the method: as §1

[7] = tested on: pigweed (Amaranthus retroflexus); assay: Test B pre-/postemergence
Summary of the method: as §1

[8] = tested on: rape (Brassica napus); assay: Test B pre-/postemergence
Summary of the method: as §1

[9] = tested on: sugar beet (Beta vulgaris); assay: Test B pre-/postemergence
Summary of the method: as §1

[10] = tested on: velvetleaf (Abutilon theophrasti); assay: Test B pre-/postemergence
Summary of the method: as §1

[11] = tested on: wheat (Triticum aestivum); assay: Test B pre-/postemergence
Summary of the method: as §1

[12] = tested on: bamyardgrass (Echinochloa crus-galli); assay: Test B flood test
Summary of the method: (§2)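 Flood test on plants grown to the 2-leaf stage; treated plants kept in greenhouse twelve to sixteen days, then visually rated against controls on a 0 (no effect) to 10 (complete control) scale.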

[13] = tested on: duck salad (Heteranthera limosa); assay: Test B flood test
Summary of the method: as §2

[14] = tested on: rice (Oryza sativa); assay: Test B flood test
Summary of the method: as §2

[15] = tested on: smallflower flatsedge (Cyperus difformis); assay: Test B flood test
Summary of the method: as §2

[16] = Preemergence, Rate 62 g/ha, scale of 0 to 10
[17] = Rate 62 g/ha, Postemergence (flood test)
[18] = Rate 125 g/ha, Postemergence section (flood test species)
[19] = Rate 250 g/ha, Postemergence (flood test species)

SMILES: Cc1cnc(-c2ccc(C(F)(F)F)cc2)nc1C(=O)c1cccc(OC(F)(F)F)c1 [Compound 75]
- Plant response rating, Bedstraw [1, 16]: 3
- Bedstraw plant response rating ([1]; Rate 62 g/ha, Postemergence): 5
- Bedstraw plant response rating ([1]; Rate 125 g/ha, Postemergence): 9
- Plant response rating, Bedstraw ([1]; Rate 125 g/ha, Preemergence): 6
- Plant response rating, Bedstraw ([1]; Rate 250 g/ha, Postemergence): 9
- Plant response rating, Bedstraw ([1]; Rate 250 g/ha, Preemergence): 6
- Plant response rating, Bedstraw ([1]; Rate 500 g/ha, Preemergence): 8
- B. signalgrass plant response rating ([2]; Rate 62 g/ha, Postemergence): 2
- B. signalgrass plant response rating ([2]; Rate 62 g/ha, Preemergence): 8
- B. signalgrass plant response rating ([2]; Rate 125 g/ha, Postemergence): 2
- Plant response rating, B. signalgrass ([2]; Rate 125 g/ha, Preemergence): 9
- Plant response rating, B. signalgrass ([2]; Rate 250 g/ha, Postemergence): 3
- Plant response rating, B. signalgrass ([2]; Rate 250 g/ha, Preemergence): 9
- Plant response rating, B. signalgrass ([2]; Rate 500 g/ha, Preemergence): 9
- Plant response rating, Cocklebur [3, 16]: 0
- Cocklebur plant response rating ([3]; Rate 62 g/ha, Postemergence): 7
- Cocklebur plant response rating ([3]; Rate 125 g/ha, Postemergence): 7
- Plant response rating, Cocklebur ([3]; Rate 125 g/ha, Preemergence): 0
- Plant response rating, Cocklebur ([3]; Rate 250 g/ha, Postemergence): 7
- Plant response rating, Cocklebur ([3]; Rate 250 g/ha, Preemergence): 2
- Plant response rating, Cocklebur ([3]; Rate 500 g/ha, Preemergence): 9
- Plant response rating, Corn [4, 16]: 0
- Corn plant response rating ([4]; Rate 62 g/ha, Postemergence): 2
- Corn plant response rating ([4]; Rate 125 g/ha, Postemergence): 3
- Plant response rating, Corn ([4]; Rate 125 g/ha, Preemergence): 0
- Plant response rating, Corn ([4]; Rate 250 g/ha, Postemergence): 3
- Plant response rating, Corn ([4]; Rate 250 g/ha, Preemergence): 1
- Plant response rating, Corn ([4]; Rate 500 g/ha, Preemergence): 2
- Plant response rating, Giant foxtail [5, 16]: 1
- Giant foxtail plant response rating ([5]; Rate 62 g/ha, Postemergence): 1
- Giant foxtail plant response rating ([5]; Rate 125 g/ha, Postemergence): 2
- Plant response rating, Giant foxtail ([5]; Rate 125 g/ha, Preemergence): 5
- Plant response rating, Giant foxtail ([5]; Rate 250 g/ha, Postemergence): 4
- Plant response rating, Giant foxtail ([5]; Rate 250 g/ha, Preemergence): 5
- Plant response rating, Giant foxtail ([5]; Rate 500 g/ha, Preemergence): 9
- Plant response rating, Morningglory [6, 16]: 6
- Morningglory plant response rating ([6]; Rate 62 g/ha, Postemergence): 10
- Morningglory plant response rating ([6]; Rate 125 g/ha, Postemergence): 10
- Plant response rating, Morningglory ([6]; Rate 125 g/ha, Preemergence): 10
- Plant response rating, Morningglory ([6]; Rate 250 g/ha, Postemergence): 10
- Plant response rating, Morningglory ([6]; Rate 250 g/ha, Preemergence): 10
- Plant response rating, Morningglory ([6]; Rate 500 g/ha, Preemergence): 10
- Plant response rating, Redroot pigweed [7, 16]: 9
- Redroot pigweed plant response rating ([7]; Rate 62 g/ha, Postemergence): 9
- Redroot pigweed plant response rating ([7]; Rate 125 g/ha, Postemergence): 9
- Plant response rating, Redroot pigweed ([7]; Rate 125 g/ha, Preemergence): 10
- Plant response rating, Redroot pigweed ([7]; Rate 250 g/ha, Postemergence): 10
- Plant response rating, Redroot pigweed ([7]; Rate 250 g/ha, Preemergence): 10
- Plant response rating, Redroot pigweed ([7]; Rate 500 g/ha, Preemergence): 10
- Plant response rating, Rape [8, 16]: 2
- Rape plant response rating ([8]; Rate 62 g/ha, Postemergence): 5
- Rape plant response rating ([8]; Rate 125 g/ha, Postemergence): 7
- Plant response rating, Rape ([8]; Rate 125 g/ha, Preemergence): 3
- Plant response rating, Rape ([8]; Rate 250 g/ha, Postemergence): 9
- Plant response rating, Rape ([8]; Rate 250 g/ha, Preemergence): 4
- Plant response rating, Rape ([8]; Rate 500 g/ha, Preemergence): 4
- Plant response rating, Sugarbeets [9, 16]: 9
- Sugarbeets plant response rating ([9]; Rate 62 g/ha, Postemergence): 10
- Sugarbeets plant response rating ([9]; Rate 125 g/ha, Postemergence): 10
- Plant response rating, Sugarbeets ([9]; Rate 125 g/ha, Preemergence): 10
- Plant response rating, Sugarbeets ([9]; Rate 250 g/ha, Postemergence): 10
- Plant response rating, Sugarbeets ([9]; Rate 250 g/ha, Preemergence): 10
- Plant response rating, Sugarbeets ([9]; Rate 500 g/ha, Preemergence): 10
- Plant response rating, Velvetleaf [10, 16]: 2
- Velvetleaf plant response rating ([10]; Rate 62 g/ha, Postemergence): 8
- Velvetleaf plant response rating ([10]; Rate 125 g/ha, Postemergence): 9
- Plant response rating, Velvetleaf ([10]; Rate 125 g/ha, Preemergence): 8
- Plant response rating, Velvetleaf ([10]; Rate 250 g/ha, Postemergence): 9
- Plant response rating, Velvetleaf ([10]; Rate 250 g/ha, Preemergence): 9
- Plant response rating, Velvetleaf ([10]; Rate 500 g/ha, Preemergence): 10
- Plant response rating, Wheat [11, 16]: 0
- Wheat plant response rating ([11]; Rate 62 g/ha, Postemergence): 2
- Wheat plant response rating ([11]; Rate 125 g/ha, Postemergence): 2
- Plant response rating, Wheat ([11]; Rate 125 g/ha, Preemergence): 4
- Plant response rating, Wheat ([11]; Rate 250 g/ha, Postemergence): 3
- Plant response rating, Wheat ([11]; Rate 250 g/ha, Preemergence): 4
- Plant response rating, Wheat ([11]; Rate 500 g/ha, Preemergence): 5
- Barnyardgrass plant response rating [12, 17]: 2
- Barnyardgrass plant response rating [12, 18]: 2
- Plant response rating, Barnyardgrass [12, 19]: 3
- Ducksalad plant response rating [13, 17]: 0
- Ducksalad plant response rating [13, 18]: 1
- Plant response rating, Ducksalad [13, 19]: 2
- Rice plant response rating [14, 17]: 1
- Rice plant response rating [14, 18]: 1
- Plant response rating, Rice [14, 19]: 1
- S. Flatsedge plant response rating [15, 17]: 0
- S. Flatsedge plant response rating [15, 18]: 0
- Plant response rating, S. Flatsedge [15, 19]: 1
